Laboratory results as given in patent US12509444B2, “Compounds and methods for CD73 modulation and indications therefor” (Plexxikon Inc., priority 2019, dated 2025).

Key:
[1] = biological target: T1, Human CD73 (amino acid residues 27-549) (Homo sapiens, UniProt P21589); assay: CD73 enzymatic assay (luciferase-based indirect assay, CellTiter-Glo); assay type: biochemical; details: 0.4 nM CD73, 150 μM AMP, 1 hour at room temperature
T1 construct: Human CD73 (amino acid residues 27-549); His tag (N); made in house; host or cells: E. coli
T1 sequence (P21589 27-549): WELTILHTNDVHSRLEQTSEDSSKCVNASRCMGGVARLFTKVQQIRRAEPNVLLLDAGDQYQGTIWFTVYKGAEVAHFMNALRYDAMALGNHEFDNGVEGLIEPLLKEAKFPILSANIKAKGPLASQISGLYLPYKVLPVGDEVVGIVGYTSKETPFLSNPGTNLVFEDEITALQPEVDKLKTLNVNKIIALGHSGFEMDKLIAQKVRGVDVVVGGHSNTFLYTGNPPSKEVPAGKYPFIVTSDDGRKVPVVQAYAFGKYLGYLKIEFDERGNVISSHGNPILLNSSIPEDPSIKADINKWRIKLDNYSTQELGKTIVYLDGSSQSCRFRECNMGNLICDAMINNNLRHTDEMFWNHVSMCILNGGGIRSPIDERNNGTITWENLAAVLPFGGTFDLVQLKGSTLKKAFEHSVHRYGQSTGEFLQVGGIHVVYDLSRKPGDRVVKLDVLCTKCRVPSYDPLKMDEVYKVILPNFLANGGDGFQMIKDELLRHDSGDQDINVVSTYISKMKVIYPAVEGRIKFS
Procedure, shortened: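 His-tagged human CD73 (27-549) from E. coli, 0.4 nM, with 150 μM AMP in 50 mM HEPES pH 7.4, 0.01% Tween 20; 1 h at room temperature. AMP remaining read by CellTiter-Glo 2.0 luminescence with 1 μM final ATP after 30 min. IC50 from nonlinear regression of % inhibition.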

[2] = biological target: T2, human CD73 (Homo sapiens, UniProt P21589); assay: Inhibitor activity against CD73 in cell based assay (CD73 expressing CHO-K1 cells); details: CHO-K1 cells expressing human CD73, 150 μM AMP, 4 hours of incubation; read-out: CHO-K1 CELL VARIANT: CD73 IC50
T2 construct: expressed in transfected cells
T2 sequence (P21589 27-549): T1 sequence (P21589 27-549)
Procedure, shortened: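 Stably transfected CHO-K1 cells expressing human CD73 (1×10^4/well) incubated 4 h with compound (8-point 1:3 titration, top 10 μM final, 0.2% DMSO) and 150 μM AMP. Residual AMP in supernatant measured by CellTiter-Glo luminescence with 1 μM ATP after 30 min at room temperature; IC50 by nonlinear regression of percent inhibition vs high/low controls.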

Compound	IC50 [1] [µM]	IC50 [2] [µM]
CCOC(=O)[C@@H]1CCC[C@H]1NC(=O)O[C@@H]1CCN(c2cn[nH]c(=O)c2Cl)C1 [P-0456, ethyl (1R,2R)-2-(((((R)-1-(5-chloro-6-oxo-1,6-dihydropyridazin-4-yl)pyrrolidin-3-yl)oxy)carbonyl)amino) cyclopentane-1-carboxylate]	0.001 to 10	0.001 to 10
CS(=O)(=O)N1CCC(NC(=O)N[C@@H]2CCN(c3cn[nH]c(=O)c3Cl)C2)CC1 [P-0076, (R)-1-(1-(5-chloro-6-oxo-1,6-dihydropyridazin-4-yl)pyrrolidin-3-yl)-3-(1-(methylsulfonyl)piperidin-4-yl)urea]	0.001 to 10	10 to 100
O=C(CO)N[C@H]1CC[C@H](NC(=O)O[C@@H]2CCN(c3cn[nH]c(=O)c3Cl)C2)CC1 [P-0164, (R)-1-(5-chloro-6-oxo-1,6-dihydropyridazin-4-yl)pyrrolidin-3-yl ((1r,4R)-4-(2-hydroxyacetamido)cyclohexyl) carbamate]	0.001 to 10	0.001 to 10
O=C(NC1(C2CCCC2)CC1)O[C@@H]1CCN(c2cn[nH]c(=O)c2Cl)C1 [P-0406, (R)-1-(5-chloro-6-oxo-1,6-dihydropyridazin-4-yl)pyrrolidin-3-yl (1-cyclopentylcyclopropyl) carbamate]	0.001 to 10	0.001 to 10
O=C(Nc1cccc(Cl)c1)O[C@@H]1CCN(c2cn[nH]c(=O)c2Cl)C1 [P-0101, (R)-1-(5-chloro-6-oxo-1,6-dihydropyridazin-4-yl)pyrrolidin-3-yl (3-chlorophenyl)carbamate]	0.001 to 10	0.001 to 10
O=C(NC1(CO)CCCC1)O[C@@H]1CCN(c2cn[nH]c(=O)c2Cl)C1 [P-0429, (R)-1-(5-chloro-6-oxo-1,6-dihydropyridazin-4-yl)pyrrolidin-3-yl (1-(hydroxymethyl)cyclopentyl) carbamate]	0.001 to 10	0.001 to 10
O=C(NC1CCC(F)(F)CC1)O[C@H]1CN(c2cn[nH]c(=O)c2Cl)C[C@@H]1F [P-0463, (3S,4S)-1-(5-chloro-6-oxo-1,6-dihydropyridazin-4-yl)-4-fluoropyrrolidin-3-yl (4,4-difluorocyclohexyl)carbamate]	0.001 to 10	0.001 to 10
O=C(NCC1CCS(=O)(=O)CC1)O[C@@H]1CCN(c2cn[nH]c(=O)c2Cl)C1 [P-0232, (R)-1-(5-chloro-6-oxo-1,6-dihydropyridazin-4-yl)pyrrolidin-3-yl ((1,1-dioxidotetrahydro-2H-thiopyran-4-yl)methyl)carbamate]	0.001 to 10	0.001 to 10
N#Cc1c(N2C[C@H](OC(=O)NC3CCC(F)(F)CC3)[C@@H](F)C2)cn[nH]c1=O [P-0483, (3S,4S)-1-(5-cyano-6-oxo-1,6-dihydropyridazin-4-yl)-4-fluoropyrrolidin-3-yl (4,4-difluorocyclohexyl)carbamate]	0.001 to 10	0.001 to 10
O=C(NC1CCCC1)N[C@H]1CC[C@H](NC(=O)O[C@@H]2CCN(c3cn[nH]c(=O)c3Cl)C2)CC1 [P-0173, (R)-1-(5-chloro-6-oxo-1,6-dihydropyridazin-4-yl)pyrrolidin-3-yl ((1r,4R)-4-(3-cyclopentylureido)cyclohexyl) carbamate]	0.001 to 10	0.001 to 10
O=C(N[C@H]1CC[C@@H](NC(=O)C2CCC2)CC1)O[C@@H]1CCN(c2cn[nH]c(=O)c2Cl)C1 [P-0290, (R)-1-(5-chloro-6-oxo-1,6-dihydropyridazin-4-yl)pyrrolidin-3-yl ((1s,4S)-4-(cyclobutanecarboxamido)cyclohexyl)carbamate]	0.001 to 10	0.001 to 10
CCn1cc(S(=O)(=O)N[C@H]2CC[C@H](NC(=O)O[C@@H]3CCN(c4cnn(C)c(=O)c4Cl)C3)CC2)cn1 [P-0226, (R)-1-(5-chloro-1-methyl-6-oxo-1,6-dihydropyridazin-4-yl)pyrrolidin-3-yl ((1r,4R)-4-((1-ethyl-1H-pyrazole)-4-sulfonamido)cyclohexyl) carbamate]	0.001 to 10	0.001 to 10
Cc1cc(C(=O)N2CCC(NC(=O)O[C@@H]3CCN(c4cn[nH]c(=O)c4Cl)C3)CC2)no1 [P-0499, (R)-1-(5-chloro-6-oxo-1,6-dihydropyridazin-4-yl)pyrrolidin-3-yl (1-(5-methylisoxazole-3-carbonyl)piperidin-4-yl)carbamate]	0.001 to 10	0.001 to 10
O=C(N[C@H]1CC[C@H](NS(=O)(=O)C2CCC2)CC1)O[C@@H]1CCN(c2cn[nH]c(=O)c2Cl)C1 [P-0291, (R)-1-(5-chloro-6-oxo-1,6-dihydropyridazin-4-yl)pyrrolidin-3-yl ((1r,4R)-4-(cyclobutanesulfonamido)cyclohexyl)carbamate]	0.001 to 10	0.001 to 10
Cc1c(N2CC[C@@H](NC(=O)OC(C)(C)C)C2)cn[nH]c1=O [P-0056, tert-butyl (R)-(1-(5-methyl-6-oxo-1,6-dihydropyridazin-4-yl)pyrrolidin-3-yl)carbamate]	0.001 to 10	10 to 100
C[C@]1(O)CC[C@@H](NC(=O)O[C@@H]2CCN(c3cn[nH]c(=O)c3Cl)C2)CC1 [P-0273, (R)-1-(5-chloro-6-oxo-1,6-dihydropyridazin-4-yl)pyrrolidin-3-yl ((1s,4S)-4-hydroxy-4-methylcyclohexyl)carbamate]	0.001 to 10	0.001 to 10
O=C(N[C@H]1CC[C@H](NC(=O)C2CCCC2)CC1)O[C@@H]1CCN(c2cn[nH]c(=O)c2Cl)C1 [P-0259, (R)-1-(5-chloro-6-oxo-1,6-dihydropyridazin-4-yl)pyrrolidin-3-yl ((1r,4R)-4-(cyclopentanecarboxamido)cyclohexyl)carbamate]	0.001 to 10	0.001 to 10
Cc1occc1C(=O)N1CCC(NC(=O)O[C@@H]2CCN(c3cn[nH]c(=O)c3Cl)C2)CC1 [P-0502, (R)-1-(5-chloro-6-oxo-1,6-dihydropyridazin-4-yl)pyrrolidin-3-yl (1-(2-methylfuran-3-carbonyl)piperidin-4-yl)carbamate]	0.001 to 10	0.001 to 10
N#Cc1ccc(NC(=O)N[C@H]2CC[C@H](NC(=O)O[C@@H]3CCN(c4cn[nH]c(=O)c4Cl)C3)CC2)cc1 [P-0322, (R)-1-(5-chloro-6-oxo-1,6-dihydropyridazin-4-yl)pyrrolidin-3-yl ((1r,4R)-4-(3-(4-cyanophenyl)ureido)cyclohexyl)carbamate]	0.001 to 10	0.001 to 10
CN(C(=O)OC1CCCCC1)C1CCN(c2cn[nH]c(=O)c2Cl)C1 (stereo not shown) [P-0068, cyclohexyl (1-(5-chloro-6-oxo-1,6-dihydropyridazin-4-yl)pyrrolidin-3-yl)(methyl)carbamate]	0.001 to 10	10 to 100
O=C(N[C@@H]1CCC[C@H]1O)O[C@@H]1CCN(c2cn[nH]c(=O)c2Cl)C1 [P-0384, (R)-1-(5-chloro-6-oxo-1,6-dihydropyridazin-4-yl)pyrrolidin-3-yl ((1R,2R)-2-hydroxycyclopentyl)carbamate]	0.001 to 10	0.001 to 10
O=C(N[C@@H]1CC[C@@H](O)C1)O[C@@H]1CCN(c2cn[nH]c(=O)c2Cl)C1 [P-0457, (R)-1-(5-chloro-6-oxo-1,6-dihydropyridazin-4-yl)pyrrolidin-3-yl ((1R,3R)-3-hydroxycyclopentyl)carbamate]	0.001 to 10	0.001 to 10
Cc1noc(C)c1C(=O)N1CCC(NC(=O)O[C@@H]2CCN(c3cn[nH]c(=O)c3Cl)C2)CC1 [P-0504, (R)-1-(5-chloro-6-oxo-1,6-dihydropyridazin-4-yl)pyrrolidin-3-yl (1-(3,5-dimethylisoxazole-4-carbonyl)piperidin-4-yl)carbamate]	0.001 to 10	0.001 to 10
O=C(NC1CCN(C(=O)c2ccc(Cl)nc2)CC1)O[C@@H]1CCN(c2cn[nH]c(=O)c2Cl)C1 [P-0418, (R)-1-(5-chloro-6-oxo-1,6-dihydropyridazin-4-yl)pyrrolidin-3-yl (1-(6-chloronicotinoyl)piperidin-4-yl)carbamate]	0.001 to 10	0.001 to 10
NCC(=O)N1CCC(NC(=O)O[C@@H]2CCN(c3cn[nH]c(=O)c3Cl)C2)CC1 [P-0159, (R)-1-(5-chloro-6-oxo-1,6-dihydropyridazin-4-yl)pyrrolidin-3-yl (1-glycylpiperidin-4-yl)carbamate]	0.001 to 10	0.001 to 10
O=C(Nc1ccc(Cl)cc1)O[C@@H]1CCN(c2cn[nH]c(=O)c2Cl)C1 [P-0094, (R)-1-(5-chloro-6-oxo-1,6-dihydropyridazin-4-yl)pyrrolidin-3-yl (4-chlorophenyl)carbamate]	0.001 to 10	10 to 100
